pIC50: −log10 of the molar value. Like-named read-outs stand apart in the source and are kept apart here.
Legend:
MonoMac6 = experiment: 7-day proliferation assay (WST-8), MonoMac6; assay type: cell-based; details: Homo sapiens, MONO-MAC-6, 168 h; Table 4; MonoMac6, AML, MLL/AF9; 7 days; read-out: IC50 in cell growth inhibition
Method: (§1) The effect of representative Compounds of the Disclosure on cell viability was determined in a 7-day proliferation assay. Cells were maintained in the appropriate culture medium with 10% FBS at 37° C. and an atmosphere of 5% CO2.
(§2) Cells were seeded in 96-well flat bottom (Corning COSTAR, Corning, N.Y., cat #3595) at a density of 2,000-3,000 cells/well in 100 μl of culture medium. Compounds were serially diluted in the appropriate medium, and 100 μl of the diluted compounds were added to the appropriate wells of the cell plate. After the addition of compounds, the cells were incubated at 37° C. in an atmosphere of 5% CO2 for 7 days. Cell viability was determined using the WST (2-(2-methoxy-4-nitrophenyl)-3-(4-nitrophenyl)-5-(2,4-disulfophenyl)-2H-tetrazolium, monosodium salt) Cell Counting-8 Kit (Dojindo Molecular Technologies, Inc., Rockville, Md.) according to the manufacturers' instructions.
(§3) WST-8 reagent was added to each well at a final concentration of 10% (v/v), and then the plates were incubated at 37° C. for 1-2 hours for color development. The absorbance was measured at 450 nm using a SPECTRAmax PLUS plate reader (Molecular Devices, Sunnyvale, Calif.). The readings were normalized to the DMSO-treated cells and the half maximal inhibitory concentration (IC50) was calculated by nonlinear regression (four parameters sigmoid fitted with variable slope, least squares fit, and no constraint) analysis using the GraphPad Prism 5 software (GraphPad Software, La Jolla, Calif.).

menin protein [1] = target: T1, menin protein (Homo sapiens (Human), UniProt O00255); experiment: Fluorescence polarization (FP) competitive binding assay, menin binding affinity; details: menin protein 4 nM, probe 2 nM, room temperature 30 minutes
T1 sequence (O00255 whole entry): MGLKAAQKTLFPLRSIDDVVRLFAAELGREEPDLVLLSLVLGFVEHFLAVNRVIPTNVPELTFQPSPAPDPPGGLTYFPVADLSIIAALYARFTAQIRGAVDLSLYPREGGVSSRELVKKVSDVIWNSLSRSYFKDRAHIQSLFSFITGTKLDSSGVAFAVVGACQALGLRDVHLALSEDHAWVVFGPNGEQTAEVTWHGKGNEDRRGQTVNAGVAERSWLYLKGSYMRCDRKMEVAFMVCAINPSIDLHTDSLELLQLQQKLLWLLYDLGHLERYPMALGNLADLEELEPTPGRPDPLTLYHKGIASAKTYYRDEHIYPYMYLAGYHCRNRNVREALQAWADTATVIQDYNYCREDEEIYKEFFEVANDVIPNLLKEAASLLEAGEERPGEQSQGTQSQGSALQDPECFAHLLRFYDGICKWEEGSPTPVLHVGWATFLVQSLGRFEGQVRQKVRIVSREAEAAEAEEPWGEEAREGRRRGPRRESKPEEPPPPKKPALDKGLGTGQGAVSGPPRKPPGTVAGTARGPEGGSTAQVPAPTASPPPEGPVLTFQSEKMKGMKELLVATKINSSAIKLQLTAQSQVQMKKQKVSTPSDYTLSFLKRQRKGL
Method: A fluorescence polarization (FP) competitive binding assay was used to determine the binding affinities of representative menin inhibitors. A FAM labeled fluorescent probe was designed and synthesized based on a MLL1 peptide (FAM-MM2). Equilibrium dissociation constant (Kd) value of FAM-MM2 to menin protein was determined from protein saturation experiments by monitoring the total fluorescence polarization of mixtures composed with the fluorescent probe at a fixed concentration and the protein with increasing concentrations up to full saturation. Serial dilutions of the protein were mixed with FAM-MM2 to a final volume of 200 μl in the assay buffer (PBS with 0.02% Bovine γ-Globulin and 4% DMSO. 0.01% Triton X-100 was added right before assays). Final FAM-MM2 concentration was 2 nM. Plates were incubated at room temperature for 30 minutes with gentle shaking to assure equilibrium. FP values in millipolarization units (mP) were measured using the Infinite M-1000 plate reader (Tecan U.S., Research Triangle Park, N.C.) in Microfluor 1 96-well, black, v-bottom plates (Thermo Scientific, Waltham, Mass.) at an excitation wavelength of 485 nm and an emission wavelength of 530 nm.
The IC50, see Table 3, of representative Compounds of the Disclosure were determined in a competitive binding experiment. Mixtures of 5 μl of the tested compounds in DMSO and 195 μl of preincubated protein/probe complex solution in the assay buffer were added into assay plates which were incubated at room temperature for 30 minutes with gentle shaking. Final concentration of the menin protein was 4 nM, and final probe concentration is 2 nM. Negative controls containing protein/probe complex only (equivalent to 0% inhibition), and positive controls containing only free probes (equivalent to 100% inhibition), were included in each assay plate. FP values were measured as described above. IC50 values were determined by nonlinear regression fitting of the competition curves.

MOLM14 = experiment: 7-day proliferation assay (WST-8), MOLM14; assay type: cell-based; details: Homo sapiens, MOLM-14, 168 h; Table 4; MOLM14, AML, MLL/AF9; 7 days; read-out: IC50 in cell growth inhibition
Method: as §1, §2, §3

RS4-11 = experiment: 7-day proliferation assay (WST-8), RS4-11; assay type: cell-based; details: Homo sapiens, 168 h; Table 4; RS4-11, B-lineage ALL, MLL/AF4; 7 days; read-out: IC50 in cell growth inhibition
Method: as §1, §2, §3

MOLM13 = experiment: 7-day proliferation assay (WST-8), MOLM13; assay type: cell-based; details: Homo sapiens, MOLM-13, 168 h, 7 days, read-out: IC50 in cell growth inhibition
Method: as §1, §2, §3

SEM cells = experiment: 7-day proliferation assay (WST-8), SEM; assay type: cell-based; details: MLL-AF9, 168 h; Table 4; 7 days; read-out: IC50 in cell growth inhibition
Method: as §1, §2, §3

MV4-11 = experiment: 7-day proliferation assay (WST-8), MV4-11; assay type: cell-based; details: Homo sapiens, 168 h, 7 days, read-out: IC50 in cell growth inhibition
Method: as §1, §2, §3

menin protein [2] = target: T1, menin protein; experiment: Covalent binding to menin protein by mass spectroscopy; details: incubated with recombinant human menin, compared to menin apo
Method: No. 1 and Cpd. […] Recombinant human menin protein was incubated with Cpd. No. 1 or Cpd. No. 3 and compared to menin protein alone (Menin apo).

Compound | pIC50 (MonoMac6) | pIC50 (menin protein [1]) | pIC50 (MOLM14) | pIC50 (RS4-11) | pIC50 (MOLM13; Table 4, MOLM13, AML, MLL/AF9) | pIC50 (SEM cells) | pIC50 (MV4-11; Table 4, MV4-11, AML, MLL/AF4) | pIC50 (MOLM13; Table 5, MOLM13) | pIC50 (MV4-11; Table 5, MV4-11) | Covalent binding with menin protein (mass spectroscopy) (menin protein [2])
C=CC(=O)Nc1cccc(S(=O)(=O)c2ccc(N3CC(CN4CCC([C@@](C#N)(c5cccc(F)c5)[C@H]5CCC[C@@H]5NC(=O)OC)CC4)C3)cc2)c1 [Cpd. No. 5, methyl ((1S,2R)-2-((S)-(1-((1-(4-((3-acrylamidophenyl)sulfonyl)phenyl)azetidin-3-yl)methyl)piperidin-4-yl)(cyano)(3-fluorophenyl)methyl)cyclopentyl)carbamate] | 6.81 | 8.70 | 7.10 | 7.97 | 7.38 | 7.40 | 8.08 |  |  | 
CCc1nccn1C[C@@](c1cccc(F)c1)(C1CCN(CC2CN(c3ccc(S(=O)(=O)C4CN(C(=O)/C=C/CN(C)C)C4)cc3)C2)CC1)[C@H]1CCC[C@@H]1NC(=O)OC [Cpd. No. 67, methyl ((1S,2R)-2-((S)-1-(1-((1-(4-((1-((E)-4-(dimethylamino)but-2-enoyl)azetidin-3-yl)sulfonyl)phenyl)azetidin-3-yl)methyl)piperidin-4-yl)-2-(2-ethyl-1H-imidazol-1-yl)-1-(3-fluorophenyl)ethyl)cyclopentyl)carbamate] |  | 8.70 |  |  |  |  |  | 7.51 | 8.22 | 
CCc1nccn1C[C@@](c1cccc(F)c1)(C1CCN(CC2CN(c3ccc(S(=O)(=O)C4CN(C(=O)/C=C/CN5CCCCC5)C4)cc3)C2)CC1)[C@H]1CCC[C@@H]1NC(=O)OC [Cpd. No. 73, methyl ((1S,2R)-2-((S)-2-(2-ethyl-1H-imidazol-1-yl)-1-(3-fluorophenyl)-1-(1-((1-(4-((1-((E)-4-(piperidin-1-yl)but-2-enoyl)azetidin-3-yl)sulfonyl)phenyl)azetidin-3-yl)methyl)piperidin-4-yl)ethyl)cyclopentyl)carbamate] |  | 8.70 |  |  |  |  |  | 8.22 | 10.00 | 
C=CC(=O)Nc1cccc(S(=O)(=O)c2ccc(N3CC(CN4CCC([C@@](C#N)(c5cccc(F)c5)[C@H]5CCC[C@@H]5OC(=O)NC)CC4)C3)cc2)c1 [Cpd. No. 3, (1S,2R)-2-((S)-(1-((1-(4-((3-acrylamidophenyl)sulfonyl)phenyl)azetidin-3-yl)methyl)piperidin-4-yl)(cyano)(3-fluorophenyl)methyl)cyclopentyl methylcarbamate] |  | 8.52 |  |  |  |  |  |  |  | covalently bind with menin protein
C=CC(=O)N1CCCC(S(=O)(=O)c2ccc(N3CC(CN4CCC([C@@](C#N)(c5cccc(F)c5)[C@H]5CCC[C@@H]5NC(=O)OC)CC4)C3)cc2)C1 (stereo partly drawn) [Cpd. No. 78, methyl ((1S,2R)-2-((1S)-(1-((1-(4-((1-acryloylpiperidin-3-yl)sulfonyl)phenyl)azetidin-3-yl)methyl)piperidin-4-yl)(cyano)(3-fluorophenyl)methyl)cyclopentyl)carbamate] |  | 8.00 |  |  |  |  |  | 6.54 | 7.19 | 
N#C[C@@](c1cccc(F)c1)(C1CCN(CC2CN(c3ccc(S(=O)(=O)C4CC4)cc3)C2)CC1)[C@H]1CCC[C@@H]1NC(=O)CCl [Cpd. No. 76, 2-chloro-N-((1S,2R)-2-((S)-cyano(1-((1-(4-(cyclopropylsulfonyl)phenyl)azetidin-3-yl)methyl)piperidin-4-yl)(3-fluorophenyl)methyl)cyclopentyl)acetamide] |  | 8.30 |  |  |  |  |  | 6.50 | 6.93 | 
COC(=O)N[C@H]1CCC[C@@H]1[C@](Cn1ccnn1)(c1cccc(F)c1)C1CCN(CC2CN(c3ccc(S(=O)(=O)C4CN(C(=O)/C=C/CN(C)C)C4)cc3)C2)CC1 [Cpd. No. 72, methyl ((1S,2R)-2-((S)-1-(1-((1-(4-((1-((E)-4-(dimethylamino)but-2-enoyl)azetidin-3-yl)sulfonyl)phenyl)azetidin-3-yl)methyl)piperidin-4-yl)-1-(3-fluorophenyl)-2-(1H-1,2,3-triazol-1-yl)ethyl)cyclopentyl)carbamate] |  | 8.70 |  |  |  |  |  | 7.66 | 9.00 | 
C=CC(=O)N1CCC(S(=O)(=O)c2ccc(N3CC(CN4CCC([C@@](C#N)(c5cccc(F)c5)[C@H]5CCC[C@@H]5NC(=O)OC)CC4)C3)cc2)C1 (stereo partly drawn) [Cpd. No. 77, methyl ((1S,2R)-2-((1S)-(1-((1-(4-((1-acryloylpyrrolidin-3-yl)sulfonyl)phenyl)azetidin-3-yl)methyl)piperidin-4-yl)(cyano)(3-fluorophenyl)methyl)cyclopentyl)carbamate] |  | 7.96 |  |  |  |  |  | 5.91 | 7.04 | 
C=CC(=O)N1CC(S(=O)(=O)c2ccc(N3CC(CN4CCC([C@@](C#N)(c5cccc(F)c5)[C@H]5CCC[C@@H]5NC(=O)OC)CC4)C3)cc2)C1 [Cpd. No. 6, methyl ((1S,2R)-2-((S)-(1-((1-(4-((1-acryloylazetidin-3-yl)sulfonyl)phenyl)azetidin-3-yl)methyl)piperidin-4-yl)(cyano)(3-fluorophenyl)methyl)cyclopentyl)carbamate] | 6.12 | 8.52 | 6.74 | 7.21 | 6.81 | 7.10 | 7.35 |  |  | 
COC(=O)N[C@H]1CCC[C@@H]1[C@@](C#N)(c1cccc(F)c1)C1CCN(CC2CN(c3ccc(S(=O)(=O)C4CN(C(=O)/C=C/CN(C)C)C4)cc3)C2)CC1 [Cpd. No. 60, methyl ((1S,2R)-2-((R)-cyano(1-((1-(4-((1-((E)-4-(dimethylamino)but-2-enoyl)azetidin-3-yl)sulfonyl)phenyl)azetidin-3-yl)methyl)piperidin-4-yl)(3-fluorophenyl)methyl)cyclopentyl)carbamate] |  | < 5.70 |  |  |  |  |  | 5.85 | 6.28 | 
C=CC(=O)Nc1cccc(S(=O)(=O)c2ccc(N3CC(CN4CCC([C@@](Cn5ccnc5CC)(c5cccc(F)c5)[C@H]5CCC[C@@H]5NC(=O)OC)CC4)C3)cc2)c1 [Cpd. No. 7, methyl ((1S,2R)-2-((S)-1-(1-((1-(4-((3-acrylamidophenyl)sulfonyl)phenyl)azetidin-3-yl)methyl)piperidin-4-yl)-2-(2-ethyl-1H-imidazol-1-yl)-1-(3-fluorophenyl)ethyl)cyclopentyl)carbamate] | 7.17 | 8.52 | 7.75 | 8.23 | 7.77 | 8.33 | 8.66 |  |  | 
COC(=O)N[C@H]1CCC[C@@H]1[C@](C#N)(c1cccc(F)c1)C1CCN(CC2CN(c3ccc(S(=O)(=O)C4CN(C(=O)/C=C/CN5CCCC5)C4)cc3)C2)CC1 [Cpd. No. 74, methyl ((1S,2R)-2-((S)-cyano(3-fluorophenyl)(1-((1-(4-((1-((E)-4-(pyrrolidin-1-yl)but-2-enoyl)azetidin-3-yl)sulfonyl)phenyl)azetidin-3-yl)methyl)piperidin-4-yl)methyl)cyclopentyl)carbamate] |  | 8.52 |  |  |  |  |  | 7.85 | 8.70 | 
